Data published in PubChem BioAssay AID493211 (Johns Hopkins Ion Channel Center, 2011).
Calls of active or inactive are those of the source.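 Rule for the calls: active = switches on the TRPC4 calcium channel at some tested dose and gives a concentration response curve; inactive = the rest.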

What follows are molecules tested against TRPC4 (mouse), transient receptor potential cation channel C4 (assay: TRPC4 channel activators, dose response, cell-based, HEK293 TRPC4/mu-opioid, Fluo-4 calcium flux (AID 493211)). Conditions: HEK293 TRPC4/mu-opioid cells, Fluo-4 calcium fluorescence ratio.

SMILES | EC50 [nM]
CN1CCN(c2ccc([N+](=O)[O-])c3cccnc23)CC1 | 9.12

Same assay, conditions: HEK293 TRPC4/mu-opioid cells, Fluo-4 calcium fluorescence ratio; at 20 µM (top of the series)

SMILES | fluorescence ratio, percent of baseline (100 = none)
COc1ccccc1N1CCN(c2ccc([N+](=O)[O-])c3cccnc23)CC1 | inactive
O=[N+]([O-])c1ccc(N2CCN(c3ccc(F)cc3F)CC2)c2ncccc12 | inactive
O=[N+]([O-])c1ccc(N2CCC2)c2ncccc12 | inactive
O=C1NCCC1Nc1ccc([N+](=O)[O-])c2cccnc12 (stereo not drawn) | inactive
CC1CC(C)CN(c2ccc([N+](=O)[O-])c3cccnc23)C1 (stereo not drawn) | inactive
O=C1CC(Nc2ccc([N+](=O)[O-])c3cccnc23)CN1 (stereo not drawn) | inactive
COc1ccc(N2CCN(c3ccc([N+](=O)[O-])c4cccnc34)CC2)cc1 | inactive
CC(C)(C)OC(=O)N1CCN(c2ccc([N+](=O)[O-])c3cccnc23)CC1 | inactive
CCOC(=O)NC1CCN(c2ccc([N+](=O)[O-])c3cccnc23)CC1 | inactive
O=[N+]([O-])c1ccc(N2CCOCC2)c2ncccc12 | inactive
C[C@H]1CCCN1c1ccc([N+](=O)[O-])c2cccnc12 | inactive
N#Cc1ccccc1N1CCN(c2ccc([N+](=O)[O-])c3cccnc23)CC1 | inactive
O=[N+]([O-])c1ccc(N2CCC3(CCc4ccccc43)CC2)c2ncccc12 | inactive
CCN(CC)c1ccc([N+](=O)[O-])c2cccnc12 | inactive
C[C@@H]1CN(c2ccc([N+](=O)[O-])c3cccnc23)[C@@H](C)CN1 | inactive
O=[N+]([O-])c1ccc(N2CCC3(C=Cc4ccccc43)CC2)c2ncccc12 | inactive
O=[N+]([O-])c1ccc(N2CCN(c3ccncc3)CC2)c2ncccc12 | inactive
O=[N+]([O-])c1ccc(N2CCN(c3ccccn3)CC2)c2ncccc12 | inactive
N#Cc1ccccc1C1CCN(c2ccc([N+](=O)[O-])c3cccnc23)CC1 | inactive
O=[N+]([O-])c1ccc(N2CCN(c3ncccn3)CC2)c2ncccc12 | inactive
O=[N+]([O-])c1ccc(N2CCOc3ccccc32)c2ncccc12 | inactive
COC(=O)C1CCCN(c2ccc([N+](=O)[O-])c3cccnc23)C1 (stereo not drawn) | inactive
